The test system of the test is HIV-1. Nature of the test: IC50 determination of an anti-viral (Table 3). The test is classed as cell-based. The following applies: Human immunodeficiency virus 1.

pIC50: −log10 of the molar value.

As usually defined, the pIC50 is −log10 of the IC50, conventionally taken in molar units. `CCCCC#CCSc1ccccc1OCCCC` [BPHS] gave a negative logarithm of the IC50 (pIC50) of 4.40.

For the origin of these results see patent publication EP1263429B1, “ANTIVIRAL THERAPY” (Universiteit Utrecht, priority 2000, dated 2001).
